Measurements taken from PubChem BioAssay (NCI).
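All cell lines were grown in 96-well plates and treated with compound for 48 hours. The concentration for full growth arrest is given as TGI.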

Tests used:
Experiment in all cases: NCI anticancer screen, dose series, 48 h
SNB-78 CNS = system: SNB-78 CNS
DLD-1 colon = system: DLD-1 colon
HL-60(TB) leukemia = system: HL-60(TB) leukemia
RPMI-8226 leukemia = system: RPMI-8226 leukemia
SN12C renal = system: SN12C renal
NCI-H522 lung = system: NCI-H522 lung
NCI-H23 lung = system: NCI-H23 lung
SK-MEL-5 melanoma = system: SK-MEL-5 melanoma
HS 578T breast = system: HS 578T breast
MDA-MB-231 breast = system: MDA-MB-231 breast

Which TGI (SNB-78 CNS) does the source give for N=C(N)SCc1cn2ccccc2n1 here?
Its TGI is greater than 100 µM.

And the TGI (DLD-1 colon)?
The TGI was greater than 100 µM.

And the TGI (HL-60(TB) leukemia)?
The TGI was greater than 100 µM.

What about the TGI (RPMI-8226 leukemia) of the same compound?
The TGI was greater than 100 µM.

And the TGI (SN12C renal)?
The TGI was greater than 100 µM.

What about the TGI (NCI-H522 lung) of the same compound?
Its TGI is greater than 100 µM.

What about the TGI (NCI-H23 lung) of the same compound?
The TGI was greater than 100 µM.

What about the TGI (SK-MEL-5 melanoma) of the same compound?
Its TGI is greater than 100 µM.

COc1ccc([C@H]2CC(=O)N3CCCC3N2)cc1 (stereo partly drawn) was tested. Which TGI (SNB-78 CNS) did it give?
The TGI was greater than 100 µM.

And the TGI (DLD-1 colon)?
The TGI was greater than 100 µM.

And the TGI (HL-60(TB) leukemia)?
The TGI was greater than 100 µM.

And the TGI (RPMI-8226 leukemia)?
The TGI was greater than 100 µM.

And the TGI (SN12C renal)?
The TGI was greater than 100 µM.

What about the TGI (NCI-H522 lung) of the same compound?
The TGI was greater than 100 µM.

What about the TGI (NCI-H23 lung) of the same compound?
Its TGI is greater than 100 µM.

And the TGI (SK-MEL-5 melanoma)?
Its TGI is greater than 100 µM.

Which TGI (SNB-78 CNS) does the source give for CCc1ccccc1NC(=O)C(=O)C(C(=O)c1ccc(OC)cc1)c1ccc(OC)cc1 (stereo not drawn) here?
The TGI was greater than 100 µM.

What about the TGI (DLD-1 colon) of the same compound?
The TGI was greater than 100 µM.

What about the TGI (HL-60(TB) leukemia) of the same compound?
Its TGI is greater than 100 µM.

What about the TGI (RPMI-8226 leukemia) of the same compound?
The TGI was greater than 100 µM.

What about the TGI (SN12C renal) of the same compound?
Its TGI is greater than 100 µM.

What about the TGI (NCI-H522 lung) of the same compound?
Its TGI is greater than 100 µM.

What about the TGI (NCI-H23 lung) of the same compound?
The TGI was greater than 100 µM.

What about the TGI (SK-MEL-5 melanoma) of the same compound?
Its TGI is greater than 100 µM.

What does the source list for COc1ccc(C(C2=C(C)C(=O)c3ccccc3C2=O)c2ccc(C(C)C)cc(=O)c2O)cc1 (stereo not drawn)?
TGI (SNB-78 CNS): 35.1 µM; TGI (DLD-1 colon): 18.4 µM; TGI (HL-60(TB) leukemia): 10.6 µM; TGI (RPMI-8226 leukemia): > 100 µM; TGI (SN12C renal): 8.4 µM; TGI (NCI-H522 lung): 48.6 µM; TGI (SK-MEL-5 melanoma): 15.2 µM

Which results are given for CSc1nc2c(c(O)c(C)c(=O)n2C2OC(COC(C)=O)C(OC(C)=O)C(OC(C)=O)C2OC(C)=O)c(=O)n1C (stereo not drawn)?
TGI (SNB-78 CNS): > 100 µM; TGI (DLD-1 colon): > 100 µM; TGI (HL-60(TB) leukemia): > 100 µM; TGI (RPMI-8226 leukemia): > 100 µM; TGI (SN12C renal): > 100 µM; TGI (NCI-H522 lung): > 100 µM; TGI (NCI-H23 lung): > 100 µM; TGI (SK-MEL-5 melanoma): > 100 µM

Which TGI (SNB-78 CNS) does the source give for COc1cc2nncc(Sc3cnnc4ccccc34)c2cc1OC here?
The TGI was 92.4 µM.

What about the TGI (DLD-1 colon) of the same compound?
Its TGI is 49.6 µM.

And the TGI (HL-60(TB) leukemia)?
The TGI was 70.5 µM.

And the TGI (RPMI-8226 leukemia)?
The TGI was 77.7 µM.

And the TGI (NCI-H522 lung)?
The TGI was 29.8 µM.

What about the TGI (SK-MEL-5 melanoma) of the same compound?
The TGI was 29.5 µM.

COC1/C=C/OC2(C)Oc3c(C)c(O)c4c(c3C2=O)C(=O)C=C(NC(=O)/C(C)=C\C=C\C(C)C(OC=O)C(C)C(O)C(C)C(OC(C)=O)C1C)C4=O (stereo not drawn) was tested. Which TGI (SNB-78 CNS) did it give?
Its TGI is 44.2 µM.

What about the TGI (DLD-1 colon) of the same compound?
The TGI was 23.3 µM.

What about the TGI (HL-60(TB) leukemia) of the same compound?
The TGI was 5.88 µM.

What about the TGI (RPMI-8226 leukemia) of the same compound?
The TGI was 24.2 µM.

What about the TGI (HS 578T breast) of the same compound?
Its TGI is 44.9 µM.

And the TGI (SN12C renal)?
The TGI was 29.5 µM.

And the TGI (NCI-H522 lung)?
The TGI was 6.33 µM.

And the TGI (MDA-MB-231 breast)?
Its TGI is greater than 48.5 µM.

What about the TGI (NCI-H23 lung) of the same compound?
Its TGI is 30.6 µM.

What about the TGI (SK-MEL-5 melanoma) of the same compound?
The TGI was 31.6 µM.

How did the TGI (SNB-78 CNS) turn out when CC1(C)O[C@H]2OC3CCC(=O)CC3(O)[C@H]2O1 (stereo partly drawn) was run?
The TGI was greater than 100 µM.

And the TGI (DLD-1 colon)?
Its TGI is greater than 100 µM.

What about the TGI (HL-60(TB) leukemia) of the same compound?
Its TGI is greater than 100 µM.

What about the TGI (RPMI-8226 leukemia) of the same compound?
Its TGI is greater than 100 µM.

And the TGI (HS 578T breast)?
Its TGI is greater than 100 µM.

And the TGI (SN12C renal)?
Its TGI is greater than 100 µM.

What about the TGI (NCI-H522 lung) of the same compound?
Its TGI is greater than 100 µM.

And the TGI (MDA-MB-231 breast)?
The TGI was greater than 100 µM.

What about the TGI (NCI-H23 lung) of the same compound?
Its TGI is greater than 100 µM.

And the TGI (SK-MEL-5 melanoma)?
The TGI was greater than 100 µM.

For Fc1cccc(Cl)c1C1SCc2nc3ccccc3n21 (stereo not drawn), which TGI (SNB-78 CNS) is on record?
Its TGI is 73.8 µM.

And the TGI (DLD-1 colon)?
Its TGI is greater than 100 µM.

And the TGI (HL-60(TB) leukemia)?
Its TGI is 33.2 µM.

What about the TGI (RPMI-8226 leukemia) of the same compound?
The TGI was 60.2 µM.

And the TGI (SN12C renal)?
The TGI was greater than 100 µM.

And the TGI (NCI-H522 lung)?
Its TGI is 87 µM.

And the TGI (NCI-H23 lung)?
The TGI was 80.4 µM.

And the TGI (SK-MEL-5 melanoma)?
The TGI was 29.7 µM.
